# Laboratory results as given in the supplement of paper PMC10307832.
# Experiments:
# Test in all cases: relative viability (nuclei count vs DMSO), 5 days (fraction); higher = more cells survive
# [1] = compound: CC1=CC=C(C=C1)C(=O)CN2C3=C(CCCC3)SC2=N [Pifithrin_alpha] + C[C@]1(O)C[C@@H](c2nc(-c3ccc4ccc(-c5ccccc5)nc4c3)c3c(N)nccn32)C1 [Linsitinib] (partner 1 µM)
# Procedure, shortened: (§1)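 Relative viability divides the nuclei count in treated wells by that in vehicle wells. Lung cancer cell lines were seeded in 1536-well plates, dosed by pin tool the next day, and fixed and stained after 5 days in one step with final 0.05% Triton X-100, 1% formaldehyde and 1 ug/ml Hoechst. Dosing was a single drug or a fixed anchor-drug dose plus five library-drug doses (not always all listed) in √10 steps, and values are medians of duplicate plates imaged at 4×.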
# Axitinib + Foretinib = compound: CNC(=O)c1ccccc1Sc1ccc2c(/C=C/c3ccccn3)n[nH]c2c1 [Axitinib] + COc1cc2c(Oc3ccc(NC(=O)C4(C(=O)Nc5ccc(F)cc5)CC4)cc3F)ccnc2cc1OCCCN1CCOCC1 [Foretinib] (partner 0.25 µM)
# Procedure, shortened: as §1
# Axitinib + Decitabine = compound: CNC(=O)c1ccccc1Sc1ccc2c(/C=C/c3ccccn3)n[nH]c2c1 [Axitinib] + Nc1ncn([C@H]2C[C@H](O)[C@@H](CO)O2)c(=O)n1 [Decitabine] (partner 2 µM)
# Procedure, shortened: as §1
# Bemcentinib + Alpelisib = compound: Nc1nc(Nc2ccc3c(c2)CC[C@@H](N2CCCC2)CC3)nn1-c1cc2c(nn1)-c1ccccc1CCC2 [Bemcentinib] + Cc1nc(NC(=O)N2CCC[C@H]2C(N)=O)sc1-c1ccnc(C(C)(C)C(F)(F)F)c1 [Alpelisib] (partner 2 µM)
# Procedure, shortened: as §1
Cell Line,relative viability ([1]; first compound 1 µM),relative viability ([1]; first compound 3.162 µM),relative viability ([1]; first compound 10 µM),relative viability ([1]; first compound 31.62 µM),relative viability ([1]; first compound 100 µM),relative viability (Axitinib + Foretinib; first compound 0.005 µM),relative viability (Axitinib + Foretinib; first compound 0.01581 µM),relative viability (Axitinib + Foretinib; first compound 0.05 µM),relative viability (Axitinib + Foretinib; first compound 0.1581 µM),relative viability (Axitinib + Foretinib; first compound 0.5 µM),relative viability (Axitinib + Decitabine; first compound 0.005 µM),relative viability (Axitinib + Decitabine; first compound 0.05 µM),relative viability (Axitinib + Decitabine; first compound 0.1581 µM),relative viability (Axitinib + Decitabine; first compound 0.5 µM),relative viability (Bemcentinib + Alpelisib; first compound 0.04 µM),relative viability (Bemcentinib + Alpelisib; first compound 0.1265 µM),relative viability (Bemcentinib + Alpelisib; first compound 0.4 µM),relative viability (Bemcentinib + Alpelisib; first compound 1.265 µM),relative viability (Bemcentinib + Alpelisib; first compound 4 µM),relative viability (Axitinib + Decitabine; first compound 0.01581 µM)
PC-3 [JPC-3],0.964,0.947,0.862,0.853,0.923,1.01,0.988,1.02,1,1.23,0.865,0.826,0.889,0.824,0.986,1.1,0.985,1.1,1.08,
HCC-366,0.512,0.508,0.581,,0.469,0.949,0.958,0.865,0.966,0.977,0.361,0.393,0.323,0.423,0.474,0.408,0.572,0.378,0.417,0.356
NCI-H2405,,0.869,0.867,0.804,0.776,1.03,1.04,1.13,1.03,1.15,0.767,0.777,0.707,0.811,0.728,0.732,0.847,0.756,0.72,0.718
NCI-H2228,1.04,0.606,0.583,0.544,0.555,0.877,0.95,0.974,0.842,0.943,,,,,,0.636,0.881,0.809,0.959,
IA-LM,0.784,0.554,0.272,0.501,0.267,1.27,1.14,1.13,1.09,1.35,,,,,0.749,0.807,0.748,0.652,0.78,
NCI-H1650,,,,,,1.32,1.12,1.24,1.19,1.31,0.441,0.434,0.381,0.406,,,,,,0.31
NCI-H1648,,,,,,,,,,,0.537,0.568,0.519,0.478,,,,,,0.574
NCI-H1792,0.563,0.498,0.378,0.422,0.486,,,,,,0.527,0.429,0.533,0.575,0.812,0.66,0.828,0.746,0.781,0.508
NCI-H1563,1.17,1.29,1.04,1.06,1,0.934,0.918,0.884,0.847,0.938,,,,,0.93,1.07,0.943,0.926,0.839,
CAL-12T,0.877,0.702,0.819,0.718,0.702,1.13,1.08,1.15,1.17,1.21,,,,,1.19,1.51,1.37,1.31,1.16,
NCI-H2170,,,,,,1.02,0.716,1.03,0.939,1.01,0.483,0.411,0.48,0.488,0.844,0.766,0.842,1.01,0.882,0.439
SW 900,,,,,,1.02,0.673,0.941,1.01,1.12,0.428,0.477,0.4,0.602,,,,,,
NCI-H1623,,,,,,0.948,0.846,0.758,0.838,0.885,,,,,,,,,,
NCI-H2342,,,,,,1.29,1.04,0.982,1.02,1.07,0.717,0.769,0.658,0.794,,,,,,0.68
NCI-H1299,1.04,1.09,1.01,0.813,0.998,1.06,1.04,1.08,1.08,1.24,,,,,1.1,1.07,1.09,1.1,1.08,
HCC-44,0.571,0.607,0.64,0.441,0.578,,,,,,0.974,0.937,0.956,0.872,0.875,0.911,0.939,0.967,1.05,0.919
NCI-H522,,,,,,,,,,,0.639,0.625,0.63,0.624,,,,,,0.725
ChaGo-K-1,,,,,,0.961,1,0.984,0.889,1,0.557,0.506,0.52,0.495,,,,,,0.527
EBC-1,0.912,0.878,0.861,0.561,0.576,0.104,0.116,0.0984,0.0972,0.122,,,,,0.843,0.863,0.825,0.849,0.76,
Calu-6,0.932,1.05,0.997,,0.848,0.955,0.902,0.855,0.904,0.947,,,,,0.928,1.04,1.01,1.04,1.07,
NCI-H1703,0.596,0.6,0.786,0.733,0.635,0.362,0.292,0.376,0.371,0.325,,,,,0.29,0.382,0.39,0.312,0.426,
